Results: BindingDB's records for doi:10.1002/cbic.201200272 (Yonsei University, 2012)

Target: T1, Pancreatic alpha-amylase (Sus scrofa, UniProt P00690)
T1 sequence (P00690 whole entry): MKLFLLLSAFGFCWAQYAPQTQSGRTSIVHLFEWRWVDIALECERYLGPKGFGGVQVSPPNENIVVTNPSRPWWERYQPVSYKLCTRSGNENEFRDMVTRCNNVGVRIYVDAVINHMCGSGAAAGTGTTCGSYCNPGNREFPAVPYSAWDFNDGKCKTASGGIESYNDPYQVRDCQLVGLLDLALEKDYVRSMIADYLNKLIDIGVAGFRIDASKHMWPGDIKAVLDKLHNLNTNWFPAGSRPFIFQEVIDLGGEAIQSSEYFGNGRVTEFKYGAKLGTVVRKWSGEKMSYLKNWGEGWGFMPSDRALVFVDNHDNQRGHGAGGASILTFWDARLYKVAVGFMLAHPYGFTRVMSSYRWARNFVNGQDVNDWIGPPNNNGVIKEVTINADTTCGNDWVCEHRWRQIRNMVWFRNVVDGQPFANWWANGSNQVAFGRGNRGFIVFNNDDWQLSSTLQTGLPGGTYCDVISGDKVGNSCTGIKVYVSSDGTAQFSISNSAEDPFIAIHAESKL
Experiment: Enzymatic Activity Assay
Settings: pH 7; 37 °C
Source text: To test whether GCTs share a common binding pocket on PPA with acarbose, we performed an experiment according to the method of Yonetani and Theorell.

Question: How did the IC50 turn out when `CO[C@@H]1O[C@H](Cn2cc(-c3ccccc3)nn2)[C@@H]2OC(C)(C)OC12` (some centres not stated) [GPESB01] was run?
Answer: The IC50 was 361 µM.

Question: What about the Ki of the same compound?
Answer: Its Ki is 780 µM.

Question: For `CO[C@@H]1O[C@H](Cn2cc(C3=CCCCC3)nn2)[C@@H]2OC(C)(C)OC12` (some centres not stated) [GPESB02], which IC50 is on record?
Answer: Its IC50 is 150 µM.

Question: What about the Ki of the same compound?
Answer: Its Ki is 342 µM.

Question: Which IC50 does the source give for `CO[C@@H]1O[C@H](Cn2cc(C3(O)CCCCC3)nn2)[C@@H]2OC(C)(C)OC12` (some centres not stated) [GPESB07] here?
Answer: The IC50 was 356 µM.

Question: And the Ki?
Answer: Its Ki is 1010 µM.

Question: Which results are given for `CO[C@@H]1O[C@H](Cn2cc(COC(C)=O)nn2)[C@@H]2OC(C)(C)OC12` (some centres not stated) [GPESB11]?
Answer: IC50: 125 µM; Ki: 234 µM

Question: For `OC1[C@H](O)O[C@H](Cn2cc(-c3ccccc3)nn2)[C@@H]1O` (some centres not stated) [GPESB14], which IC50 is on record?
Answer: The IC50 was 88.9 µM.

Question: And the Ki?
Answer: Its Ki is 204 µM.

Question: With `OC1[C@H](O)O[C@H](Cn2cc(C3=CCCCC3)nn2)[C@@H]1O` (some centres not stated) [GPESB15] as the compound, how does the IC50 read?
Answer: Its IC50 is 35.8 µM.

Question: What about the Ki of the same compound?
Answer: The Ki was 33.6 µM.
